Measurements as given in patent US8822509B2, “Pain-relieving compositions and uses therefor” (priority 2006, dated 2014).

Experiments:
[1] = system: tactile (mechanical) allodynia in hindpaws of STZ-diabetic rats; assay: Anti-allodynia by von Frey paw withdrawal thresholds (PWT) in STZ-diabetic rats; format: in vivo, Wistar rats
Experimental: Following this, the jugular cannula was withdrawn, the vein tied off, and the incision sutured. Following surgery, rats received antibiotic prophylaxis in the form of topical dusting powder over the sutured incisions, as well as a subcutaneous injection of benzylpenicillin (60 mg). Rats were placed in individual cages, kept warm and monitored closely during the surgical recovery period. Rats were classified as diabetic if on day 10 post-STZ administration, their daily water intake was ≧100 mL and their corresponding blood glucose levels (BGLs) were ≧15 mM.
Calibrated von Frey filaments were used to document the time course for the development and maintenance of tactile allodynia (defining symptom of PDN).
(§1) Briefly, baseline PWTs were determined for both hindpaws prior to each antinociceptive testing session in the non-diabetic control group at week 0 as well as in groups of STZ-diabetic rats at 10, 14 and 24 wks.
(§2) The PWT vs time data were normalized by subtracting the pre-dosing baseline PWT values for each individual rat to obtain ΔPWT values as follows: Normalized (Δ)PWT value=Post-treatment PWT value−PWT value prior to treatment.
(§3) ΔPWT versus time curves were then constructed. Trapezoidal integration was used to estimate ΔPWT AUC values for individual rats in the non-diabetic and STZ-diabetic rat treatment groups. ΔPWT AUC versus dose curves were constructed and GraphPad™ Prism was used to estimate the ˜ED50 values.

[2] = system: hindpaws of control non-diabetic rats; assay: Antinociception by von Frey PWT in control non-diabetic rats; format: in vivo, Wistar rats; details: single s.c. bolus; morphine 1.8-21.4 μmol/kg, Compound 1 2-20 fmol/kg
Experimental: as §1, §2, §3

STZ-diabetic rats [3] = assay: Behavioural side-effects in STZ-diabetic rats; format: in vivo; details: Compound 1 800 pmol/kg s.c.; morphine 21 μmol/kg
[4] = system: non-diabetic control rats; assay: Tolerance development (7-day continuous s.c. infusion, 2-day washout) in non-diabetic control rats, von Frey PWT; format: in vivo
STZ-diabetic rats [5] = assay: Tolerance development (7-day s.c. infusion, 2-day washout) in STZ-diabetic rats, von Frey PWT; format: in vivo
[6] = week 10 post-STZ, morphine 2.8 μmol/kg s.c.
[7] = drug-naïve non-diabetic rats, Compound 1 8 fmol/kg, morphine 2.8 mmol/kg (so in the source) s.c. bolus
[8] = non-diabetic rats, second s.c. bolus after 7-day infusion and 2-day washout

## CN1CC[C@]23c4c5ccc(O)c4O[C@H]2[C@@H](O)C=C[C@H]3[C@H]1C5 [morphine, reference compound]
[1]; morphine 1.8-21.4 μmol/kg s.c. (FIG. 2)
  time of peak effect post-dosing: 30 to 60 min
[1]; single s.c. bolus at 10, 14, 24 wks post-STZ
  anti-allodynia in the hindpaws of STZ-diabetic rats: dose-dependent anti-allodynia
[1]; [6]
  mean (±SEM) PWT at time of peak response: 10.7 ± 0.6 g
  reversal of mechanical allodynia at time of peak response: fully reversed mechanical allodynia
[1]; week 14 post-STZ, morphine 2.8 μmol/kg s.c.
  anti-allodynic potency: significantly reduced
[1]; week 14 post-STZ, morphine 10.5 μmol/kg s.c.
  relief of mechanical allodynia at time of peak response: completely relieved mechanical allodynia
[1]; week 24 post-STZ, morphine 10.5 and 21.4 μmol/kg s.c.
  anti-allodynic potency: markedly reduced
[2]
  antinociception in the hindpaws of control non-diabetic rats: dose-dependent antinociception
STZ-diabetic rats [3]
  behavioural side-effects at highest dose: staring and sedation
[4]; drug-naïve non-diabetic rats, first s.c. bolus
  time of peak antinociception post-dosing: 1 h
[4]; [7]
  mean (±SEM) peak PWT: 16.0 (±0.4) g
  mean (±SEM) peak ΔPWT: 4.4 (±0.4) g
[4]; non-diabetic rats
  tolerance after 7-day continuous s.c. infusion: antinociceptive tolerance developed
[4]; non-diabetic rats, after 2-day washout
  antinociception after second bolus, naïve vs "tolerant" rats: tolerant to the antinociceptive effects of morphine
[4]; [8]
  mean (±SEM) peak PWT: 12 (±0.3) g
  mean (±SEM) peak ΔPWT: 0.5 (±0.3) g
STZ-diabetic rats [5]; STZ-diabetic rats
  tolerance after 7-day s.c. infusion: antinociceptive tolerance developed
STZ-diabetic rats [5]; STZ-diabetic rats, after 2-day washout, morphine 10.5 μmol/kg, Compound 1 800 pmol/kg
  anti-allodynia after second bolus (tolerance status): insignificant anti-allodynia
STZ-diabetic rats [5]; naïve STZ-diabetic rats, first s.c. bolus
  time of peak anti-allodynia post-dosing: 1 h
STZ-diabetic rats [5]; naïve STZ-diabetic rats, Compound 1 800 pmol/kg, morphine 10.4 μmol/kg s.c. bolus
  mean (±SEM) peak PWT: 10.7 (±0.3) g
